# According to patent US6380198B1 (Laboratoire Medidom S.A., priority 1997, dated 2002):
# Several values for one entry are separate records, joined by “and”; a condition that tells them apart may be missing. Equal values may be shown once. Read-outs that look alike come from different tables or passages of the source.
# Tests used:
# σ-1 receptors = target: T1, σ-1 receptors (Oryctolagus cuniculus, UniProt G1SD54); experiment: [3H](+)-pentazocine receptor binding and competitive binding on irido-ciliary body membranes; design: species or system rabbit (New Zealand albino)
# T1 construct: cell membranes obtained from the irido-ciliary body complex; from tissue; host or cells: rabbit irido-ciliary body, P2 membrane fraction
# T1 sequence (G1SD54 1-223): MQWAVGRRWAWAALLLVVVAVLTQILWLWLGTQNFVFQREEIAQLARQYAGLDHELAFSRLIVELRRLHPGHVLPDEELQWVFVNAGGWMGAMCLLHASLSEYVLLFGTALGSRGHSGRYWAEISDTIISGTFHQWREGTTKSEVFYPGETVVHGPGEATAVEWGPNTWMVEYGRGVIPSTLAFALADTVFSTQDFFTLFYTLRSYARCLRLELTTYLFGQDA
# Source text: In order to identify the presence of a receptor sites in the eye the technique of “receptor binding” has been exploited. The latter has been carried out on cell membranes obtained from the irido-ciliary body complex. The irido-ciliary body complex had been explanted, after sacrifice, from male albino rabbits of the New Zealand strain. The tissue was homogenised in buffer and a fraction rich in cell membrane proteins was isolated, obtained by centrifugation. […] Aliquots of the said fraction of the homogenate containing 300 μg of total proteins were incubated with scalar amounts of [^3H](+)-pentazocine (which is used, for experimental purposes only, as a a ligand). The reaction was carried out at 37° C. for 150 minutes and then, after filtering, the radioactivity left on the filters was measured by liquid scintillation.
# intraocular pressure [1] = experiment: Intraocular pressure in New Zealand albino rabbits after instillation of a σ ligand; assay type: in vivo, rabbit (New Zealand albino); conditions: 1% preparation, 50 μl in right conjunctival fornix; 60 minutes after instillation; p<0.01
# Protocol: A 1% preparation of NANM was administered (50 μl) in the conjunctival fornix of the right eye of male albino rabbits of the New Zealand strain, after measuring the (baseline) intraocular pressure.
# [2] = test system: intraocular pressure of rabbits showing normal baseline intraocular pressure; experiment: Intraocular pressure in rabbits with normal intraocular pressure after topical instillation; assay type: in vivo, rabbit (Vienna Blue, pigmented)
# [3] = test system: intraocular pressure of rabbits with ocular hypertension; experiment: Intraocular pressure in rabbits with ocular hypertension induced by α-chymotrypsin; assay type: in vivo, rabbit (Vienna Blue, pigmented)
# [4] = test system: cornea (corneal thickness)
# intraocular pressure [5] = conditions: general statement on the literature; cited from earlier work
# intraocular pressure [6] = conditions: cited from earlier work
# [7] = 50 μl eye-drops, 0.050% flunarizine, equimolar comparators, 0.5% timolol
smiles,measurement,setting,value
"C=CCN1CC[C@@]2(C)c3cc(O)ccc3C[C@@H]1[C@@H]2C [NANM, (+)-N-allil-nor-meth-azocine]",Classes of σ receptor sites bound (Hill coefficient analysis),σ-1 receptors; competitive binding,interacts with one only class
same,Displacement of [3H](+)-pentazocine in competitive binding,"σ-1 receptors; constant amount of radioligand, scalar amounts of competitor",shift the radioactive ligands from the receptor sites
same,Intraocular pressure versus vehicle,intraocular pressure [1],significantly reduced
COc1ccc(CCN(C)CCCC(C#N)(c2ccc(OC)c(OC)c2)C(C)C)cc1OC (centres unmarked) [verapamil],"Effect on intraocular pressure in rabbits with normal pressure, in words",[2]; [7],"neither the verapamil formulation nor the diltiazem formulation, both using the same vehicle as MEG 01, did produce any intraocular pressure decrease"
same,"Intraocular pressure (mmHg) at the time (min): 30, average ± S.D.","[2]; Table 1, average ± S.D. of 4 rabbits, 30 min after instillation, 50 μl eye-drops: 0.050% flunarizine, 0.056% verapamil, 0.051% diltiazem, 0.043% nifedipine",15 ± 1.3 mmHg
same,"Intraocular pressure (mmHg) at the time (min): 60, average ± S.D.","[2]; Table 1, average ± S.D. of 4 rabbits, 60 min after instillation, 50 μl eye-drops: 0.050% flunarizine, 0.056% verapamil, 0.051% diltiazem, 0.043% nifedipine",14.7 ± 0.5 mmHg
same,"Intraocular pressure (mmHg) at the time (min): 90, average ± S.D.","[2]; Table 1, average ± S.D. of 4 rabbits, 90 min after instillation, 50 μl eye-drops: 0.050% flunarizine, 0.056% verapamil, 0.051% diltiazem, 0.043% nifedipine",14 ± 1.0 mmHg
same,"Intraocular pressure (mmHg) at the time (min): 120, average ± S.D.","[2]; Table 1, average ± S.D. of 4 rabbits, 120 min after instillation, 50 μl eye-drops: 0.050% flunarizine, 0.056% verapamil, 0.051% diltiazem, 0.043% nifedipine",15.7 ± 0.5 mmHg
same,"Intraocular pressure (mmHg) at the time (min): 180, average ± S.D.","[2]; Table 1, average ± S.D. of 4 rabbits, 180 min after instillation, 50 μl eye-drops: 0.050% flunarizine, 0.056% verapamil, 0.051% diltiazem, 0.043% nifedipine",16.2 ± 0.5 mmHg
same,"Intraocular pressure (mmHg) at the time (min): 240, average ± S.D.","[2]; Table 1, average ± S.D. of 4 rabbits, 240 min after instillation, 50 μl eye-drops: 0.050% flunarizine, 0.056% verapamil, 0.051% diltiazem, 0.043% nifedipine",16.5 ± 1.0 mmHg
same,"Intraocular pressure (mmHg) at the time (min): 0, average ± S.D.","[2]; Table 1, average ± S.D. of 4 rabbits, time 0 = 15 min before instillation (baseline), 50 μl eye-drops: 0.050% flunarizine, 0.056% verapamil, 0.051% diltiazem, 0.043% nifedipine",16 ± 0.8 mmHg
same,Intraocular pressure (mmHg) at the time (min): 30,"[2]; Table 1, individual rabbit, right eye, 30 min after instillation, 50 μl eye-drops: 0.050% flunarizine, 0.056% verapamil, 0.051% diltiazem, 0.043% nifedipine",16 mmHg and 14 mmHg and 17 mmHg and 15 mmHg
same,Intraocular pressure (mmHg) at the time (min): 60,"[2]; Table 1, individual rabbit, right eye, 60 min after instillation, 50 μl eye-drops: 0.050% flunarizine, 0.056% verapamil, 0.051% diltiazem, 0.043% nifedipine",15 mmHg (3×) and 14 mmHg
same,Intraocular pressure (mmHg) at the time (min): 90,"[2]; Table 1, individual rabbit, right eye, 90 min after instillation, 50 μl eye-drops: 0.050% flunarizine, 0.056% verapamil, 0.051% diltiazem, 0.043% nifedipine",15 mmHg (3×) and 13 mmHg
same,Intraocular pressure (mmHg) at the time (min): 120,"[2]; Table 1, individual rabbit, right eye, 120 min after instillation, 50 μl eye-drops: 0.050% flunarizine, 0.056% verapamil, 0.051% diltiazem, 0.043% nifedipine",16 mmHg (3×) and 13 mmHg
same,Intraocular pressure (mmHg) at the time (min): 180,"[2]; Table 1, individual rabbit, right eye, 180 min after instillation, 50 μl eye-drops: 0.050% flunarizine, 0.056% verapamil, 0.051% diltiazem, 0.043% nifedipine",16 mmHg (3×) and 17 mmHg
same,Intraocular pressure (mmHg) at the time (min): 240,"[2]; Table 1, individual rabbit, right eye, 240 min after instillation, 50 μl eye-drops: 0.050% flunarizine, 0.056% verapamil, 0.051% diltiazem, 0.043% nifedipine",17 mmHg (3×) and 15 mmHg
same,Intraocular pressure (mmHg) at the time (min): 0,"[2]; Table 1, individual rabbit, right eye, time 0 = 15 min before instillation (baseline), 50 μl eye-drops: 0.050% flunarizine, 0.056% verapamil, 0.051% diltiazem, 0.043% nifedipine",17 mmHg and 15 mmHg and 16 mmHg (2×)
same,"Effect on intraocular pressure in rabbits with ocular hypertension, in words",[3]; [7],do not show any significant reduction
same,"Intraocular pressure (mmHg) at the time (min): 30, average ± S.D.","[3]; Table 3, hypertensive rabbits, average ± S.D. of 4 rabbits, 30 min after instillation, 50 μl eye-drops: 0.050% flunarizine, 0.056% verapamil, 0.051% diltiazem, 0.043% nifedipine",48.7 ± 6.5 mmHg
same,"Intraocular pressure (mmHg) at the time (min): 60, average ± S.D.","[3]; Table 3, hypertensive rabbits, average ± S.D. of 4 rabbits, 60 min after instillation, 50 μl eye-drops: 0.050% flunarizine, 0.056% verapamil, 0.051% diltiazem, 0.043% nifedipine",50.0 ± 5.47 mmHg
same,"Intraocular pressure (mmHg) at the time (min): 90, average ± S.D.","[3]; Table 3, hypertensive rabbits, average ± S.D. of 4 rabbits, 90 min after instillation, 50 μl eye-drops: 0.050% flunarizine, 0.056% verapamil, 0.051% diltiazem, 0.043% nifedipine",48.0 ± 5.94 mmHg
same,"Intraocular pressure (mmHg) at the time (min): 120, average ± S.D.","[3]; Table 3, hypertensive rabbits, average ± S.D. of 4 rabbits, 120 min after instillation, 50 μl eye-drops: 0.050% flunarizine, 0.056% verapamil, 0.051% diltiazem, 0.043% nifedipine",48.5 ± 5.97 mmHg
same,"Intraocular pressure (mmHg) at the time (min): 180, average ± S.D.","[3]; Table 3, hypertensive rabbits, average ± S.D. of 4 rabbits, 180 min after instillation, 50 μl eye-drops: 0.050% flunarizine, 0.056% verapamil, 0.051% diltiazem, 0.043% nifedipine",48.75 ± 6.39 mmHg
same,"Intraocular pressure (mmHg) at the time (min): 240, average ± S.D.","[3]; Table 3, hypertensive rabbits, average ± S.D. of 4 rabbits, 240 min after instillation, 50 μl eye-drops: 0.050% flunarizine, 0.056% verapamil, 0.051% diltiazem, 0.043% nifedipine",49.5 ± 5.44 mmHg
same,"Intraocular pressure (mmHg) at the time (min): 0, average ± S.D.","[3]; Table 3, hypertensive rabbits, average ± S.D. of 4 rabbits, time 0 = 15 min before instillation (baseline), 50 μl eye-drops: 0.050% flunarizine, 0.056% verapamil, 0.051% diltiazem, 0.043% nifedipine",49.0 ± 5.94 mmHg
same,Intraocular pressure (mmHg) at the time (min): 30,"[3]; Table 3, hypertensive rabbits, individual rabbit, right eye, 30 min after instillation, 50 μl eye-drops: 0.050% flunarizine, 0.056% verapamil, 0.051% diltiazem, 0.043% nifedipine",55 mmHg and 48 mmHg and 40 mmHg and 52 mmHg
same,Intraocular pressure (mmHg) at the time (min): 60,"[3]; Table 3, hypertensive rabbits, individual rabbit, right eye, 60 min after instillation, 50 μl eye-drops: 0.050% flunarizine, 0.056% verapamil, 0.051% diltiazem, 0.043% nifedipine",56 mmHg and 49 mmHg and 43 mmHg and 52 mmHg
same,Intraocular pressure (mmHg) at the time (min): 90,"[3]; Table 3, hypertensive rabbits, individual rabbit, right eye, 90 min after instillation, 50 μl eye-drops: 0.050% flunarizine, 0.056% verapamil, 0.051% diltiazem, 0.043% nifedipine",55 mmHg and 46 mmHg and 41 mmHg and 50 mmHg
same,Intraocular pressure (mmHg) at the time (min): 120,"[3]; Table 3, hypertensive rabbits, individual rabbit, right eye, 120 min after instillation, 50 μl eye-drops: 0.050% flunarizine, 0.056% verapamil, 0.051% diltiazem, 0.043% nifedipine",55 mmHg and 47 mmHg and 41 mmHg and 51 mmHg
same,Intraocular pressure (mmHg) at the time (min): 180,"[3]; Table 3, hypertensive rabbits, individual rabbit, right eye, 180 min after instillation, 50 μl eye-drops: 0.050% flunarizine, 0.056% verapamil, 0.051% diltiazem, 0.043% nifedipine",57 mmHg and 46 mmHg and 42 mmHg and 50 mmHg
same,Intraocular pressure (mmHg) at the time (min): 240,"[3]; Table 3, hypertensive rabbits, individual rabbit, right eye, 240 min after instillation, 50 μl eye-drops: 0.050% flunarizine, 0.056% verapamil, 0.051% diltiazem, 0.043% nifedipine",56 mmHg and 48 mmHg and 43 mmHg and 51 mmHg
same,Intraocular pressure (mmHg) at the time (min): 0,"[3]; Table 3, hypertensive rabbits, individual rabbit, right eye, time 0 = 15 min before instillation (baseline), 50 μl eye-drops: 0.050% flunarizine, 0.056% verapamil, 0.051% diltiazem, 0.043% nifedipine",56 mmHg and 47 mmHg and 42 mmHg and 51 mmHg
same,Corneal thickness (mm): 1 hour,"[4]; individual rabbit, treated right eye (RE), 1 hour after single 50 μl instillation, 0.050% flunarizine, 0.056% verapamil, 0.051% diltiazem, 0.043% nifedipine",0.376 mm and 0.398 mm and 0.387 mm and 0.401 mm
same,Corneal thickness (mm): 2 hours,"[4]; individual rabbit, treated right eye (RE), 2 hours after single 50 μl instillation, 0.050% flunarizine, 0.056% verapamil, 0.051% diltiazem, 0.043% nifedipine",0.385 mm and 0.406 mm and 0.400 mm and 0.494 mm
same,Corneal thickness (mm): 3 hours,"[4]; individual rabbit, treated right eye (RE), 3 hours after single 50 μl instillation, 0.050% flunarizine, 0.056% verapamil, 0.051% diltiazem, 0.043% nifedipine",0.383 mm and 0.402 mm (2×) and 0.410 mm
same,Corneal thickness (mm): Baseline,"[4]; individual rabbit, treated right eye (RE), before single 50 μl instillation, 0.050% flunarizine, 0.056% verapamil, 0.051% diltiazem, 0.043% nifedipine",0.356 mm and 0.384 mm and 0.372 mm and 0.392 mm
same,Increase in corneal thickness,[4]; ophthalmic solution containing 0.056% verapamil,15-20 μm/hour
same,"Corneal swelling / alteration of corneal thickness, in words","[4]; single 50 μl instillation, observed up to 3 hours",caused comeal swelling
same,Intraocular pressure after administration to man,intraocular pressure [5],reduction of the intraocular pressure
same,Intraocular pressure after oral administration to rabbits,intraocular pressure [6]; Beatty et al. 1984,did not evidence any effect
same,Intraocular pressure after topical administration to rabbits,intraocular pressure [6]; Beatty et al. 1984,increase in the intraocular pressure
same,Intraocular pressure after systemic administration to rabbits,intraocular pressure [6]; Payene et al. 1990,reduction in the intraocular pressure
same,Intraocular pressure after topical administration to rabbits,intraocular pressure [6]; Payene et al. 1990,did not detect any significant effect
